Measured values reported in patent publication US20240050428A1 (Cullgen (Shanghai), Inc., priority 2020, published 2024).
Like-named read-outs stand apart in the source and are kept apart here.

What was measured:
MOLM-13 cells = test: Cell viability assay (CellTiter-Glo) in MOLM-13 cells, alone or with gilteritinib; assay type: cell-based; details: Homo sapiens, MOLM-13 cells, three days, CellTiter-Glo
MV4;11 cells = test: Cell viability assay (CellTiter-Glo) in MV4;11 cells, alone or with gilteritinib; assay type: cell-based; details: Homo sapiens, MV4;11 cells, three days, CellTiter-Glo, read-out: MV4
[1] = MOLM-13, 72 h, compound alone (without gilteritinib), read-out: MOLM-13 IC50
[2] = MOLM-13, 72 h, with gilteritinib 20 nM, read-out: MOLM-13 IC50 gilteritinib
[3] = MV4-11, 72 h, compound alone (without gilteritinib), 11 IC50
[4] = MV4-11, 72 h, with gilteritinib 10 nM, 11 IC50 gilteritinib
[5] = 72 h, compound alone (without gilteritinib), read-out: MOLM-13 IC50
[6] = 72 h, with gilteritinib 20 nM, read-out: MOLM-13 IC50 gilteritinib
[7] = 72 h, compound alone (without gilteritinib), 11 IC50
[8] = 72 h, with gilteritinib 10 nM, 11 IC50 gilteritinib

SMILES	IC50 (MOLM-13 cells; [1]) [nM]	IC50 (MOLM-13 cells; [2]) [nM]	IC50 (MV4;11 cells; [3]) [nM]	IC50 (MV4;11 cells; [4]) [nM]	IC50 (MOLM-13 cells; [5]) [nM]	IC50 (MOLM-13 cells; [6]) [nM]	IC50 (MV4;11 cells; [7]) [nM]	IC50 (MV4;11 cells; [8]) [nM]
O=C1CCC(N2Cc3c(Nc4cccc(Nc5cccc(N6CCC(n7cc(-c8cnc9ccccc9n8)cn7)CC6)c5)n4)cccc3C2=O)C(=O)N1 (centres unmarked) [GS-090, 3-(1-Oxo-4-((6-((3-(4-(4-(quinoxalin-2-yl)-1H-pyrazol-1-yl)piperidin-1-yl)phenyl)amino)pyridin-2-yl)amino)isoindolin-2-yl)piperidine-2,6-dione]	10 to 100	< 10	10 to 100	< 10				
O=C1CCC(N2Cc3c(Nc4ccnc(NCC(=O)N5CCC(n6cc(-c7cnc8ccccc8n7)cn6)CC5)n4)cccc3C2=O)C(=O)N1 (centres unmarked) [GS-091, 3-(1-Oxo-4-((2-((2-oxo-2-(4-(4-(quinoxalin-2-yl)-1H-pyrazol-1-yl)piperidin-1-yl)ethyl)amino)pyrimidin-4-yl)amino)isoindolin-2-yl)piperidine-2,6-dione]	> 1000	> 1000	> 1000	> 1000				
O=C1CCC(N2Cc3c(Nc4ccnc(NC5CCC(N6CCC(n7cc(-c8cnc9ccccc9n8)cn7)CC6)C5)n4)cccc3C2=O)C(=O)N1 (centres unmarked) [GS-092, 3-(1-Oxo-4-((2-((3-(4-(4-(quinoxalin-2-yl)-1H-pyrazol-1-yl)piperidin-1-yl)cyclopentyl)amino)pyrimidin-4-yl)amino)isoindolin-2-yl)piperidine-2,6-dione]	> 1000	> 1000	> 1000	> 1000				
O=C1CCC(N2Cc3c(csc3CNC(=O)Nc3cccc(N4CCC(n5cc(-c6cnc7ccccc7n6)cn5)CC4)c3)C2=O)C(=O)N1 (centres unmarked) [GS-093, 1-((5-(2,6-Dioxopiperidin-3-yl)-4-oxo-5,6-dihydro-4H-thieno[3,4-c]pyrrol-1-yl)methyl)-3-(3-(4-(4-(quinoxalin-2-yl)-1H-pyrazol-1-yl)piperidin-1-yl)phenyl)urea]	< 10	< 10	< 10	< 10				
O=C1CCC(N2Cc3c(Nc4ccnc(Nc5cccc(N6CCC(N7CCCCC7)CC6)c5)n4)cccc3C2=O)C(=O)N1 (centres unmarked) [GS-094, 3-(4-((2-((3-([1,4′-Bipiperidin]-1′-yl)phenyl)amino)pyrimidin-4-yl)amino)-1-oxoisoindolin-2-yl)piperidine-2,6-dione]	> 1000	> 1000	> 1000	> 1000				
O=C1CCC(N2Cc3ccc(CCCCCC(=O)N4CCC(c5ccccc5)CC4)cc3C2=O)C(=O)N1 (centres unmarked) [GS-095, 3-(1-Oxo-6-(6-oxo-6-(4-phenylpiperidin-1-yl)hexyl)isoindolin-2-yl)piperidine-2,6-dione]					100 to 1000	10 to 100	100 to 1000	10 to 100
O=C1CCC(N2Cc3ccc(CCCCCCC(=O)N4CCN(c5ccccn5)CC4)cc3C2=O)C(=O)N1 (centres unmarked) [GS-096, 3-(1-Oxo-6-(7-oxo-7-(4-(pyridin-2-yl)piperazin-1-yl)heptyl)isoindolin-2-yl)piperidine-2,6-dione]					100 to 1000	< 10	10 to 100	< 10
O=C1CCC(N2Cc3ccc(CCCCCCC(=O)N4CCC(n5cc(-c6cnc7ccccc7n6)cn5)CC4)cc3C2=O)C(=O)N1 (centres unmarked) [GS-097, 3-(1-Oxo-6-(7-oxo-7-(4-(4-(quinoxalin-2-yl)-1H-pyrazol-1-yl)piperidin-1-yl)heptyl)isoindolin-2-yl)piperidine-2,6-dione]	10 to 100	< 10	10 to 100	< 10				
O=C1CCC(N2Cc3ccc(CCCCCCC(=O)N4CCC(n5cc(-c6ccc7ccccc7n6)cn5)CC4)cc3C2=O)C(=O)N1 (centres unmarked) [GS-098, 3-(1-Oxo-6-(7-oxo-7-(4-(4-(quinolin-2-yl)-1H-pyrazol-1-yl)piperidin-1-yl)heptyl)isoindolin-2-yl)piperidine-2,6-dione]	100 to 1000	< 10	10 to 100	10 to 100				
O=C1CCC(N2Cc3ccc(CCCCCCC(=O)N4CCC(c5ccccc5)CC4)cc3C2=O)C(=O)N1 (centres unmarked) [GS-099, 3-(1-Oxo-6-(7-oxo-7-(4-phenylpiperidin-1-yl)heptyl)isoindolin-2-yl)piperidine-2,6-dione]					100 to 1000	10 to 100	100 to 1000	10 to 100
O=C1CCC(N2C(=O)c3ccc(NCCC4CCC(n5cc(-c6cnc7ccccc7n6)cn5)CC4)cc3C2=O)C(=O)N1 (centres unmarked) [GS-100, 2-(2,6-Dioxopiperidin-3-yl)-5-((2-(4-(4-(quinoxalin-2-yl)-1H-pyrazol-1-yl)cyclohexyl)ethyl)amino)isoindoline-1,3-dione]	> 1000	100 to 1000	> 1000	> 1000				
O=C1CCC(N2Cc3ccc(CCCCCC(=O)N4CCC(n5cc(-c6cnc7ccccc7n6)cn5)CC4)cc3C2=O)C(=O)N1 (centres unmarked) [GS-101, 3-(1-Oxo-6-(6-oxo-6-(4-(4-(quinoxalin-2-yl)-1H-pyrazol-1-yl)piperidin-1-yl)hexyl)isoindolin-2-yl)piperidine-2,6-dione]	10 to 100	< 10	< 10	< 10				
O=C1CCC(N2Cc3ccc(CCCCCC(=O)N4CCC(n5cc(-c6ccc7ccccc7n6)cn5)CC4)cc3C2=O)C(=O)N1 (centres unmarked) [GS-102, 3-(1-Oxo-6-(6-oxo-6-(4-(4-(quinolin-2-yl)-1H-pyrazol-1-yl)piperidin-1-yl)hexyl)isoindolin-2-yl)piperidine-2,6-dione]	100 to 1000	10 to 100	10 to 100	< 10				
O=C1CCC(N2Cc3ccc(CCCCCC(=O)N4CCN(c5ccccn5)CC4)cc3C2=O)C(=O)N1 (centres unmarked) [GS-103, 3-(1-Oxo-6-(6-oxo-6-(4-(pyridin-2-yl)piperazin-1-yl)hexyl)isoindolin-2-yl)piperidine-2,6-dione]					> 1000	100 to 1000	> 1000	100 to 1000
O=C1CCC(N2Cc3ccc(CCCCCC(=O)N4CCC(c5ccccn5)CC4)cc3C2=O)C(=O)N1 (centres unmarked) [GS-104, 3-(1-Oxo-6-(6-oxo-6-(4-(pyridin-2-yl)piperidin-1-yl)hexyl)isoindolin-2-yl)piperidine-2,6-dione]	> 1000	100 to 1000	100 to 1000	100 to 1000				
O=C1CCC(N2Cc3ccc(CCCCCCCn4cc(-c5cnc6ccccc6n5)cn4)cc3C2=O)C(=O)N1 (centres unmarked) [GS-105, 3-(1-Oxo-6-(7-(4-(quinoxalin-2-yl)-1H-pyrazol-1-yl)heptyl)isoindolin-2-yl)piperidine-2,6-dione]	10 to 100	< 10	10 to 100	10 to 100				
O=C1CCC(N2Cc3ccc(CCCCCCn4cc(-c5cnc6ccccc6n5)cn4)cc3C2=O)C(=O)N1 (centres unmarked) [GS-106, 3-(1-Oxo-6-(6-(4-(quinoxalin-2-yl)-1H-pyrazol-1-yl)hexyl)isoindolin-2-yl)piperidine-2,6-dione]	> 1000	10 to 100	100 to 1000	10 to 100				
O=C1CCC(N2C(=O)c3ccc(NCCCC4CC(n5cc(-c6cnc7ccccc7n6)cn5)C4)cc3C2=O)C(=O)N1 (centres unmarked) [GS-107, 2-(2,6-Dioxopiperidin-3-yl)-5-((3-(3-(4-(quinoxalin-2-yl)-1H-pyrazol-1-yl)cyclobutyl)propyl)amino)isoindoline-1,3-dione]	> 1000	10 to 100	100 to 1000	10 to 100				
O=C1CCC(N2Cc3c(OCc4ccc(CN5CCC(n6cc(-c7cnc8ccccc8n7)cn6)CC5)cc4)cccc3C2=O)C(=O)N1 (centres unmarked) [GS-108, 3-(1-Oxo-4-((4-((4-(4-(quinoxalin-2-yl)-1H-pyrazol-1-yl)piperidin-1-yl)methyl)benzyl)oxy)isoindolin-2-yl)piperidine-2,6-dione]	> 1000	10 to 100	> 1000	100 to 1000				
O=C(CC1CC1n1cc(-c2cnc3ccccc3n2)cn1)NCc1ccc2c(c1)CN(C1CCC(=O)NC1=O)C2=O (centres unmarked) [GS-109, N-((2-(2,6-Dioxopiperidin-3-yl)-1-oxoisoindolin-5-yl)methyl)-2-(2-(4-(quinoxalin-2-yl)-1H-pyrazol-1-yl)cyclopropyl)acetamide]	> 1000	100 to 1000	100 to 1000	100 to 1000				
O=C1CCC(N2Cc3c(NC4CCCC(Nc5cccc(N6CCC(n7cc(-c8cnc9ccccc9n8)cn7)CC6)c5)C4)cccc3C2=O)C(=O)N1 (centres unmarked) [GS-110, 3-(1-Oxo-4-((3-((3-(4-(4-(quinoxalin-2-yl)-1H-pyrazol-1-yl)piperidin-1-yl)phenyl)amino)cyclohexyl)amino)isoindolin-2-yl)piperidine-2,6-dione]	10 to 100	< 10	< 10	< 10				
O=C1CCC(N2Cc3ccc(CCCCCCC(=O)N4CCC(c5ccccn5)CC4)cc3C2=O)C(=O)N1 (centres unmarked) [GS-111, 3-(1-Oxo-6-(7-oxo-7-(4-(pyridin-2-yl)piperidin-1-yl)heptyl)isoindolin-2-yl)piperidine-2,6-dione]	> 1000	100 to 1000	100 to 1000	10 to 100				
O=C1CCC(N2C(=O)c3ccc(NCCCC4CCCC(n5cc(-c6cnc7ccccc7n6)cn5)C4)cc3C2=O)C(=O)N1 (centres unmarked) [GS-112, 2-(2,6-Dioxopiperidin-3-yl)-5-((3-(3-(4-(quinoxalin-2-yl)-1H-pyrazol-1-yl)cyclohexyl)propyl)amino)isoindoline-1,3-dione]	> 1000	100 to 1000	> 1000	100 to 1000				
